Measurements reported in patent US10738057B2, “Tertiary alcohols as PI3K-γ inhibitors” (Incyte Corporation, priority 2017, dated 2020).
Counter-ions that a name gives are not always drawn. Like-named read-outs stand apart in the source and are kept apart here.

How the values were obtained:
[1] = test system: Phosphorylated Ribosomal Protein S6 (RPS6) in THP-1 cells; experiment: THP-1 RPS6 ELISA assay; format: cell-based, Human; conditions: serum starved, 2 h compound, 10 nM MCP-1 for 15 min, phospho-RPS6 ELISA, read-out: PI3Kγ_THP1_RPS6_ELISA IC50
Summary of the method: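 Serum-starved THP-1 cells (2×10^5/well, RPMI) preincubated with compound 2 h at 37° C, then stimulated with 10 nM MCP-1 for 15 min. Lysates assayed by phospho-RPS6 ELISA, absorbance 450 nm (540 nm correction); IC50 from percent inhibition versus log concentration.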

[2] = target: PI3Kγ (p110γ) Recombinant Human Protein (Homo sapiens (Human), UniProt P48736); experiment: PI3K-γ scintillation proximity assay; format: biochemical; conditions: 20 μM PIP2, 2 μM ATP, 13 nM PI3Kγ, 120 min, room temperature
Summary of the method: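 Radiometric SPA in 20 mM MOPS pH 6.7, 10 mM MgCl2, 5 mM DTT, 0.03% CHAPS, 2% DMSO. Stopped with EDTA and WGA SPA beads for scintillation counting. IC50 fitted from % solvent-control activity versus log concentration.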

[3] = target: PI3Kδ (p110δ/p85α) Recombinant Human Protein (Homo sapiens (Human), UniProt O00329); experiment: PI3Kδ scintillation proximity assay; format: biochemical; conditions: 20 μM PIP2, 2 μM ATP, 3.4 nM PI3Kδ, 120 min, room temperature; read-out: PI3Kδ IC50
Summary of the method: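 Recombinant human p110δ/p85α was run at room temperature in 20 mM MOPS pH 6.7, 10 mM MgCl2, 5 mM DTT, 0.03% CHAPS, 2% DMSO. Substrates were 20 µM PIP2 and 2 µM ATP with [γ-33P]ATP. Product was captured overnight on WGA SPA beads and counted by scintillation; IC50 fitted from percent of solvent control versus log concentration.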

[4] = Homo sapiens, THP-1, THP-1 cells

Chain of PI3Kγ (p110γ) Recombinant Human Protein (P48736 whole entry): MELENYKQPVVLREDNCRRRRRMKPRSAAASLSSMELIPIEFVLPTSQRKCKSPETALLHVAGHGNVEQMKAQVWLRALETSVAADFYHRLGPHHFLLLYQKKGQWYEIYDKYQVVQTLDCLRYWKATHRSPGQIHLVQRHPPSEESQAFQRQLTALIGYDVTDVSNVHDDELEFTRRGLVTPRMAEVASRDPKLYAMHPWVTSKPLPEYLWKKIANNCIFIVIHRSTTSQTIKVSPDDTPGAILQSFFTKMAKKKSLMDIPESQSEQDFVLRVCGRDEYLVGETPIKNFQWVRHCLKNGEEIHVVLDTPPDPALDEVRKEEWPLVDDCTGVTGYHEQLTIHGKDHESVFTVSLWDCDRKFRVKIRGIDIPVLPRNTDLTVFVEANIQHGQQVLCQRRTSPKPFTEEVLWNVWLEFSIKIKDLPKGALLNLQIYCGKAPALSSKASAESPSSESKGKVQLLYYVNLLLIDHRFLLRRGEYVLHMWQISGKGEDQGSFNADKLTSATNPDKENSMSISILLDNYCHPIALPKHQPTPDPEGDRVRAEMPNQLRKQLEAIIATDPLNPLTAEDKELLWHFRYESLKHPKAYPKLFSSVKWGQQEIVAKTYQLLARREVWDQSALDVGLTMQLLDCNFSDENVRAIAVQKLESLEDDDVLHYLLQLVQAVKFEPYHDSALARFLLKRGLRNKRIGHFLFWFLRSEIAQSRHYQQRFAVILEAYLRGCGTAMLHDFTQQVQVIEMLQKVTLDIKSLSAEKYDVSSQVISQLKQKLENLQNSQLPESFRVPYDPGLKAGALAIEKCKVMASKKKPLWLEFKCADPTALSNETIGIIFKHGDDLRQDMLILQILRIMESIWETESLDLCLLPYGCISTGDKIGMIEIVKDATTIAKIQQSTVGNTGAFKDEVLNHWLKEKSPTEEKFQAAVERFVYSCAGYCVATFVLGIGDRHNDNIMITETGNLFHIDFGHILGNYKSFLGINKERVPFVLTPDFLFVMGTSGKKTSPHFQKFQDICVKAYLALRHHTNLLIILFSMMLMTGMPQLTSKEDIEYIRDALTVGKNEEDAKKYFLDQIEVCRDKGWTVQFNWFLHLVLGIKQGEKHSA
Chain of PI3Kδ (p110δ/p85α) Recombinant Human Protein (O00329 whole entry): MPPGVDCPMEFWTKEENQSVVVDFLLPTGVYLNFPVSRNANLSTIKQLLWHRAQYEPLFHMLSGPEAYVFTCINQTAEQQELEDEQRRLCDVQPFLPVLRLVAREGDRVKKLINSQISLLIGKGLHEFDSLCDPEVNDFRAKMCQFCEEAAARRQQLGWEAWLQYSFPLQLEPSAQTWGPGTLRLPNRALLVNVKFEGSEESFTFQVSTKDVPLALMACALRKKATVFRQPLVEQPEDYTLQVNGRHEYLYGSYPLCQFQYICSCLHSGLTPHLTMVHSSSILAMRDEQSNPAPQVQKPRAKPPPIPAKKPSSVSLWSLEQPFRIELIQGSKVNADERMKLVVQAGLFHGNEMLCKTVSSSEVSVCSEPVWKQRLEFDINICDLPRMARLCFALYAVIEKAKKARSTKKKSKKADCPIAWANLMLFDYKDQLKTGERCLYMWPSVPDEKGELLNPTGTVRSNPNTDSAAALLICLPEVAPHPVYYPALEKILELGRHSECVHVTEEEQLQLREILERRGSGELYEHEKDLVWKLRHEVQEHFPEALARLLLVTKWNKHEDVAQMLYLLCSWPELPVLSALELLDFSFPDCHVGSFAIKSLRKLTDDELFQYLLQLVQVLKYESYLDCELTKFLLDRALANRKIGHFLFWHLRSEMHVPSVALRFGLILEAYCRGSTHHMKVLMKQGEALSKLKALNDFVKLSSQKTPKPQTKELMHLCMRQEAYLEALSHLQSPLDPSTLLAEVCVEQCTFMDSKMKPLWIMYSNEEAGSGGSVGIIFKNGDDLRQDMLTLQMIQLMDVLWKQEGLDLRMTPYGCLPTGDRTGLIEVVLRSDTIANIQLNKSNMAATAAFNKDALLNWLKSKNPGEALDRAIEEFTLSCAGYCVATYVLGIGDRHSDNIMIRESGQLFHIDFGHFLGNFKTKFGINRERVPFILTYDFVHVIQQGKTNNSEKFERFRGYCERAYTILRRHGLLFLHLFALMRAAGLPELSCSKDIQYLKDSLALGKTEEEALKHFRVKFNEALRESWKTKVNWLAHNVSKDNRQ
Chain of PI3Kδ (p110δ/p85α) Recombinant Human Protein (P27986 whole entry partner): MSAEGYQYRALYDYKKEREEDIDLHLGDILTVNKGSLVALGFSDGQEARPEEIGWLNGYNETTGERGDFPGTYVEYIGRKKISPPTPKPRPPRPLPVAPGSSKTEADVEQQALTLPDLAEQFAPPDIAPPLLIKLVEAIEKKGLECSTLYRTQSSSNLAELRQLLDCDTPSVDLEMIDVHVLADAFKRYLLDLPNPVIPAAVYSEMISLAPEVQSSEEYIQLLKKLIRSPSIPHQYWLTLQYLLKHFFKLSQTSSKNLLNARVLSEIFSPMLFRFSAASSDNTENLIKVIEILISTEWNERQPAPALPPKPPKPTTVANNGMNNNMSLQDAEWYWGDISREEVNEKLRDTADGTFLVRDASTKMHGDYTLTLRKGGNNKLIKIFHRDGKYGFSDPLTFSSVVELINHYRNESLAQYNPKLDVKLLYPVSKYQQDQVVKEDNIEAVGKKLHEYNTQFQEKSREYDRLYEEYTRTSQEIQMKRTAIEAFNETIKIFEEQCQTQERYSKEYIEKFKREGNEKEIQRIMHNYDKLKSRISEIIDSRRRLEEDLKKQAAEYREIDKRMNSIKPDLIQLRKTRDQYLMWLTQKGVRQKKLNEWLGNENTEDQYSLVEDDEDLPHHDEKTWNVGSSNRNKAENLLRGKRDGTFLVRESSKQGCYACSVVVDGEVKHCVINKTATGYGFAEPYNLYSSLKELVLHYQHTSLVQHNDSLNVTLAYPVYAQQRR

SMILES | IC50 ([1]; THP-1 cells) | IC50 [2] | IC50 [3] | IC50 [1, 4]
Cc1ccc(C(C)(O)C(F)F)cc1-c1cnc2c(N)nc(-c3ccn(C)n3)cn12 (stereo not drawn) [Example 43, 2-(3-(8-Amino-6-(1-methyl-1H-pyrazol-3-yl)imidazo[1,2-a]pyrazin-3-yl)-4-methylphenyl)-1,1-difluoropropan-2-ol] |  | < 100 nM | 100 to 500 nM | 500 to 1000 nM
Cc1ccc(C(C)(O)C(F)(F)F)cc1-c1cnc2c(N)nc(-c3ccnc(CO)c3)cn12 (single isomer, unassigned) [Example 12, 2-(3-(8-amino-6-(2-(hydroxymethyl)pyridin-4-yl)imidazo[1,2-a]pyrazin-3-yl)-4-methylphenyl)-1,1,1-trifluoropropan-2-ol] | < 100 nM | < 100 nM | < 100 nM | 
Cc1ncc(-c2cn3c(-c4cc(C(C)(O)C(F)F)ccc4C)cnc3c(N)n2)o1 (stereo not drawn) [Example 28, 2-(3-(8-Amino-6-(2-methyloxazol-5-yl)imidazo[1,2-a]pyrazin-3-yl)-4-methylphenyl)-1,1-difluoropropan-2-ol] |  | < 100 nM | < 100 nM | 100 to 500 nM
Cc1ccc(C(O)(C(N)=O)C(F)(F)F)cc1-c1cnc2c(N)nc(C(=O)NC3(C(F)(F)F)CCOCC3)cn12 (stereo not drawn) [Example 85, 8-Amino-3-(5-(3-amino-1,1,1-trifluoro-2-hydroxy-3-oxopropan-2-yl)-2-methylphenyl)-N-(4-(trifluoromethyl)tetrahydro-2H-pyran-4-yl)imidazo[1,2-a]pyrazine-6-carboxamide, trifluoroacetate] |  | < 100 nM | 500 to 2000 nM | 100 to 500 nM
COc1ncccc1-c1cn2c(-c3cc(C(C)(O)C(F)F)ccc3C)cnc2c(N)n1 (stereo not drawn) [Example 33, 2-(3-(8-Amino-6-(2-methoxypyridin-3-yl)imidazo[1,2-a]pyrazin-3-yl)-4-methylphenyl)-1,1-difluoropropan-2-ol] |  | < 100 nM | 100 to 500 nM | < 100 nM
Cc1ccc(C(C)(O)C(F)F)cc1-c1cnc2c(N)nc(-c3ccnn3C)cn12 (single isomer, unassigned) [Example 30, 2-(3-(8-Amino-6-(1-methyl-1H-pyrazol-5-yl)imidazo[1,2-a]pyrazin-3-yl)-4-methylphenyl)-1,1-difluoropropan-2-ol] | 100 to 500 nM | < 100 nM | 100 to 500 nM | 
Cc1nc(N)c2ncc(-c3cc(C(C)(O)C(F)(F)F)ccc3C)n2n1 (stereo not drawn) [Example 2, 2-(3-(4-Amino-2-methylimidazo[2,1-f][1,2,4]triazin-7-yl)-4-methylphenyl)-1,1,1-trifluoropropan-2-ol] |  | < 100 nM | 500 to 2000 nM | 500 to 1000 nM
Cc1ccc(C(C)(O)C(F)(F)F)cc1-c1cnc2c(N)nc(C(=O)N[C@@H](B(O)O)C3CCC3)cn12 (single isomer, unassigned) [Example 117] |  | < 100 nM | 500 to 2000 nM | > 1000 nM
Cc1ccc(C(C)(O)C(F)F)cc1-c1cnc2c(N)nc(-c3ccc(B(O)O)cc3)cn12 (stereo not drawn) [Example 108, (4-(8-amino-3-(5-(1,1-difluoro-2-hydroxypropan-2-yl)-2-methylphenyl)imidazo[1,2-a]pyrazin-6-yl)phenyl)boronic acid trifluoroacetate salt] |  | < 100 nM | < 100 nM | < 100 nM
CCOC(=O)C1CC1c1cn2c(-c3cc(C(C)(O)C(F)F)ccc3C)cnc2c(N)n1 (single isomer, unassigned) [Example 75, Ethyl 2-(8-amino-3-(5-(1,1-difluoro-2-hydroxypropan-2-yl)-2-methylphenyl)imidazo[1,2-a]pyrazin-6-yl)cyclopropane-1-carboxylate trifluoroacetate salt] |  | < 100 nM | 100 to 500 nM | 100 to 500 nM
Cc1ccc(C(C)(O)C(F)F)cc1-c1cnc2c(N)nc(-c3ccnn3C)nn12 (single isomer, unassigned) [Example 51, 2-(3-(4-Amino-2-(1-methyl-1H-pyrazol-5-yl)imidazo[2,1-f][1,2,4]triazin-7-yl)-4-methylphenyl)-1,1-difluoropropan-2-ol trifluoroacetate salt] |  | < 100 nM | < 100 nM | < 100 nM
Cc1ccc(C(C)(O)C(F)F)cc1-c1cnc2c(N)nc(-c3ccnc(CO)c3)cn12 (single isomer, unassigned) [Example 44, 2-(3-(8-Amino-6-(2-(hydroxymethyl)pyridin-4-yl)imidazo[1,2-a]pyrazin-3-yl)-4-methylphenyl)-1,1-difluoropropan-2-ol] |  | < 100 nM | < 100 nM | < 100 nM
Cc1ccc(C(C)(O)C(F)(F)F)cc1-c1cnc2c(N)nc(C(F)(F)F)cn12 (stereo not drawn) [Example 4, 2-(3-(8-Amino-6-(trifluoromethyl)imidazo[1,2-a]pyrazin-3-yl)-4-methylphenyl)-1,1,1-trifluoropropan-2-ol] |  | < 100 nM | 100 to 500 nM | 100 to 500 nM

Results, then the molecule that gave them:

IC50 ([1]; THP-1 cells) | IC50 [2] | IC50 [3] | IC50 [1, 4] | SMILES
100 to 500 nM | < 100 nM | < 100 nM |  | Cc1ccc(C(C)(O)C(F)F)cc1-c1cnc2c(N)nc(-c3ccnc(CO)c3)cn12 (single isomer, unassigned) [Example 45, 2-(3-(8-Amino-6-(2-(hydroxymethyl)pyridin-4-yl)imidazo[1,2-a]pyrazin-3-yl)-4-methylphenyl)-1,1-difluoropropan-2-ol]
 | < 100 nM | < 100 nM | 100 to 500 nM | [2H]C([2H])([2H])c1ccc(C(C)(O)C(F)(F)F)cc1-c1cnc2c(N)nc(C(=O)NCC(C)(C)O)cn12 (stereo not drawn) [Example 81, 8-Amino-N-(2-hydroxy-2-methylpropyl)-3-(2-(methyl-d3)-5-(1,1,1-trifluoro-2-hydroxypropan-2-yl)phenyl)imidazo[1,2-a]pyrazine-6-carboxamide]
 | < 100 nM | 100 to 500 nM | 100 to 500 nM | [2H]C([2H])([2H])c1ccc(C(C)(O)C(F)(F)F)cc1-c1cnc2c(N)nc(-c3cnn(C(CC#N)C4CCC4)c3)cn12 (stereo not drawn) [Example 86, 3-(4-(8-Amino-3-(2-(methyl-d3)-5-(1,1,1-trifluoro-2-hydroxypropan-2-yl)phenyl)imidazo[1,2-a]pyrazin-6-yl)-1H-pyrazol-1-yl)-3-cyclobutylpropanenitrile, trifluoroacetate]
 | < 100 nM | < 100 nM | < 100 nM | Cc1ccc(C(C)(O)C(F)F)cc1-c1cnc2c(N)nc(-c3ccnc(C)c3F)cn12 (stereo not drawn) [Example 35, 2-(3-(8-Amino-6-(3-fluoro-2-methylpyridin-4-yl)imidazo[1,2-a]pyrazin-3-yl)-4-methylphenyl)-1,1-difluoropropan-2-ol]
 | < 100 nM | 100 to 500 nM | 100 to 500 nM | Cc1ccc(C(C)(O)C(F)(F)F)cc1-c1cnc2c(N)nc(C(F)(F)F)nn12 (stereo not drawn) [Example 1, 2-(3-(4-Amino-2-(trifluoromethyl)imidazo[2,1-f][1,2,4]triazin-7-yl)-4-methylphenyl)-1,1,1-trifluoropropan-2-ol]
 | < 100 nM | 100 to 500 nM | 100 to 500 nM | Cc1ccc(C(O)(C(N)=O)C(F)(F)F)cc1-c1cnc2c(N)nc(C(=O)NC3(C)CCOC3C)cn12 (stereo not drawn) [Example 84, 8-Amino-3-(5-(3-amino-1,1,1-trifluoro-2-hydroxy-3-oxopropan-2-yl)-2-methylphenyl)-N-(2,3-dimethyltetrahydrofuran-3-yl)imidazo[1,2-a]pyrazine-6-carboxamide, trifluoroacetate]
